Test system: fungal growth
Experiment: Biocidal function: fungal growth on brushed bread slices
Assay type: cell-based, fungi
Conditions: French bread slices brushed on all sides, 14 days, dark, 18-20° C.
Description: In this example the following solutions/materials were used: • 1. Deionized water • 2. Solution CuCl2.2H2O in deionized water, 571 ppm Cu • 3. Solution CuCl2.2H2O in deionized water, 1286 ppm Cu • 4. Cu containing sol of example 5 in Table 7a, 571 ppm Cu • 5. Cu containing sol of example 6 in Table 7a, 1286 ppm Cu
Slices of French bread from a local baker were used as substrates for fungal growth. The bread slices were as brushed on all sides with solutions 1-5. The bread slices on dinner plates were put in plastic bags (one slice on a plate to a bag), which were in a dark, closed room where the temperature varied between 18 and 20° C. over the day. After 14 days, the untreated bread slice was severely befouled and the slice seemed to be completely invaded by fungi.

Molecule | Fungal growth on treated bread slice
O.O.[Cl-].[Cl-].[Cu+2] [Cu solution containing 1286 ppm Cu, CuCl2.2H2O] | Only little fungal growth

Test system: not given
Experiment: not given
Conditions: 20° C.; cited from earlier work

Molecule | Aqueous solubility [µM]
Cd(OH)2 | 18
Pb(OH)2 | 6.7
Cu(OH)2 | 0.17
Fe(OH)2 | 5.8
Fe(OH)3 | 0.0002
Gd(OH)3 | 0.52

Source: patent US11679984B2, “Composite sols” (Prebona AB, priority 2016, dated 2023)
